Source: patent US4818772A, “Derivatives of 4-aminoethoxy-5-isopropyl-2-methylbenzenes: methods of synthesis and utilization as medicines” (Societe Cortial S.A., priority 1981, dated 1989)
Structures can show the parent of a compound that is named as a salt. Where two headings read alike, the source gives them in different places.

How the values were obtained:
[1] = in vivo; settings: mouse; for mortality: oral, Swiss mice, solvent varies by compound, read-out: Percentage mortality
Method: The toxicity of the compounds described in the present invention was determined by performing tests with Swiss mice. The animals, free of specific pathogenic organisms, are kept in an air-conditioned room for 24 to 48 hours before the beginning of the experiment. The animals are divided into groups consisting of 5 males and 5 females. The substances are administered with the appropriate carrier in a volume corresponding to 0.1 ml per 10 g of animal weight.
The following tables display the LD 50 determined for each compound, for oral and intraperitoneal administration, by utilizing the method described by J. C. Cazin (Bull. Soc. Pharm. Lille, 1972, 4, 187). In case the LD 50 could not be measured, the mortality percentages produced by various doses are reported.

[2] = system: aortic strips isolated from rabbits (contractions induced by noradrenaline); experiment: In vitro alpha-blocking activity: antagonism of noradrenaline-induced contractions of aortic strips; format: cell-based; settings: Oryctolagus cuniculus, read-out: CI 50 (50% inhibition of standard contraction induced by noradrenaline), noradrenaline 2×10^-6 M/l
Method: In vitro alpha-blocking activity is determined by the antagonism of contractions of aortic strips isolated from rabbits. The contractions are induced by noradrenaline at a concentration of 2×10^-6 M/l. The technique utilized is derived from that of Furchgott and Bhadrakom (J. Pharmacol., 1953, 108, 129-43). The agonist is introduced in the bath 30 seconds or 14 minutes after the addition of the antagonist.

[3] = system: hypertension induced by phenylephrine; experiment: In vivo alpha-blocking activity: antagonism of hypertension induced by phenylephrine, intravenous, amyelic rats; settings: for inhibition in vivo at 1.6 mg/kg / inhibition in vivo at 3.2 mg/kg / inhibition in vivo at 0.2 mg/kg: Rattus norvegicus, iv, read-out: % of maximum activity (percentage inhibition); for time for the residual activity to become 50% of the maximum activity: i.v.
Method: (§1) The in vivo alpha-blocking activity is estimated by the measurement of the antagonism of hypertension induced by phenylephrine. For intravenous administration, amyelic rats with both vagus nerves removed according to the technique of J. S. Gillespie and T. C. Muir (Br. J. Pharmac. Chemother., 1967, 30, 78-87) are used. The alpha-blocking agents are administered at doses of 0.2, 1.6 and 3.2 mg/kg.

[4] = system: rats of Okamoto stock that are spontaneously hypertensive; experiment: Antihypertensive activity in spontaneously hypertensive rats; format: in vivo; settings: i.v., 0.1 mg/kg; from 135 mm of mercury; anesthetized with pentobarbital
Method: (§2) For oral administration, male rats kept awake and fitted with catheters implanted in the carotid artery and in the jugular vein are used. Compound COR 28 11 results in a maximum activity of 56.7±10.25% at a dose of 5 mg/kg. After 60 minutes, the activity is still 30%. The antihypertensive activity is determined on rats of Okamoto stock that are spontaneously hypertensive and anesthesized with pentobarbital. A dose of 0.1 mg/kg of compound COR 28 11 administered intravenously causes the average blood pressure to go from 135 to 106 mm of mercury.

[5] = system: hypertension induced by phenylephrine; experiment: In vivo alpha-blocking activity: antagonism of hypertension induced by phenylephrine, oral, awake male rats; settings: 5 mg/kg
Method: as §1, §2

[6] = system: unwashed human platelets; experiment: Prevention of the aggregation of human platelets (plasma rich in platelets); format: cell-based; settings: Platelet
Method: The studies were carried out with platelets in their natural surroundings (plasma rich in platelets). The inhibiting agent was tested in the presence of four types of aggregating agents (ADP, adrenalin, collagen, arachidonic acid) at various concentrations.
For each case, a dose-response curve was established.

[7] = agonist 30 seconds after antagonist (not flagged with *)
[8] = read-out: I 50 (50% inhibition of platelet aggregation), ADP 1.25μM/l
[9] = read-out: I 50 (50% inhibition of platelet aggregation), ADP 2.5μM/l
[10] = read-out: I 50 (50% inhibition of platelet aggregation), adrenalin 1μM/l
[11] = read-out: I 50 (50% inhibition of platelet aggregation), adrenalin 5μM/l
[12] = read-out: I 50 (50% inhibition of platelet aggregation), arachidonic acid 5·10^-4 M/l
[13] = read-out: I 50 (50% inhibition of platelet aggregation), arachidonic acid 10^-3 M/l
[14] = read-out: I 50 (50% inhibition of platelet aggregation), collagen 50μg/ml

Compound	LD50 ([1]; ip) [mg/kg]	IC50 [2, 7] [µM]	inhibition in vivo at 1.6 mg/kg ([3]; 1.6 mg/kg) [%]	inhibition in vivo at 3.2 mg/kg ([3]; 3.2 mg/kg) [%]	LD50 ([1]; po) [mg/kg]	time for the residual activity to become 50% of the maximum activity ([3]; 1.6 mg/kg, given in m and s) [min]	other results
COc1cc(C(C)C)c(OCCN(C)CCOc2ccccc2)cc1C [COR 28 09, hydrochloride of N-methyl-N-phenoxyethyl-2-[(2-isopropyl-4-methoxy-5-methyl)phenoxy]ethylamine]	200	260	51.4 ± 5.1	74.7 ± 5.2			mortality ([1]; 1000 mg/kg): 0%
COc1cc(C(C)C)c(OCCN(C)CCOc2c(OC)cccc2OC)cc1C [COR 28 11, hydrochloride of N-(2,6-dimethoxyphenoxyethyl)-N-methyl-2-[(2-isopropyl-4-methoxy-5-methyl)phenoxy]ethylamine]	93		61.8 ± 4.9	74.6 ± 4.4	546	> 60	average blood pressure after administration [4]: 106 mm of mercury; maximum activity [5]: 56.7±10.25%; activity after 60 minutes ([5]; after 60 minutes): 30%; IC50 ([2]; 14 min, contact time 14 min): 21.6 µM; time for the residual activity to become 50% of the maximum activity ([3]; 3.2 mg/kg, given in m and s): 60 min
Cc1cc(OCCN(C)CCCc2ccccc2)c(C(C)C)cc1O [COR 28 23, hydrochloride of 5-isopropyl-2-methyl-4-[N-methyl-N-(3-phenylpropyl)aminoethoxy]phenol]	154	2.7	81.1 ± 2.35		615	20	
Cc1cc(OCCN(C)CC2COc3ccccc3O2)c(C(C)C)cc1O (centres unmarked) [COR 28 12, hydrochloride of N-[(4-hydroxy-2-isopropyl-5-methyl)phenoxyethyl]-N-methyl-[2-(1,4-benzodioxane)]methylamine]	350	90	59.1 ± 7.5	65.7 ± 4.5	1430		
COc1cc(C(C)C)c(OCCNCCOc2ccccc2)cc1C [COR 28 10, hydrochloride of N-phenoxyethyl-2-[(2-iso-propyl-4-methoxy-5-methyl)phenoxy]ethylamine]	81	350	66.3 ± 1.83	77			mortality ([1]; 1000 mg/kg): 20%
Cc1cc(OCCNCCCc2ccccc2)c(C(C)C)cc1O [COR 28 21, hydrochloride of 5-isopropyl-2-methyl-4-[N-(3-phenylpropyl)aminoethoxy]phenol]	84.6	11.7	73.4 ± 6.99		359	50	
Cc1cc(OCCNCC2COc3ccccc3O2)c(C(C)C)cc1O (centres unmarked) [COR 28 14, hydrochloride of N-[(4-hydroxy-2-isopropyl-5-methyl)phenoxyethyl]-[2-(1,4-benzodioxane)]methylamine]	174	6	92 ± 2.45	100	952		time for the residual activity to become 50% of the maximum activity ([3]; 3.2 mg/kg, given in m and s): > 60 min
CC(=O)Oc1cc(C(C)C)c(OCCN(C)C)cc1C [Moxisylyte, reference compound]	73	17	83.1 ± 5.71	82.6 ± 4.54	225		
Cc1cc(OCCNCC2COc3ccccc3O2)c(C(C)C)cc1O (centres unmarked) [drawing 29]							IC50 [6, 8]: 60 µM; IC50 [6, 9]: 58 µM; IC50 [6, 10]: 24 µM; IC50 [6, 11]: 50 µM; IC50 [6, 12]: 15 µM; IC50 [6, 13]: 54 µM; IC50 [6, 14]: 52 µM
COc1cccc(OC)c1OCCN(C)CCOc1cc(C)c(O)cc1C(C)C [COR 28 22, hydrochloride of 4-[N-(2,6-dimethoxyphenoxyethyl)-N-methylaminoethoxy]-5-isopropyl-2-methylphenol]	66.2	0.178	112 ± 7.3		316	120	inhibition in vivo at 0.2 mg/kg ([3]; 0.2 mg/kg): 91.1 ± 3.46%; time for the residual activity to become 50% of the maximum activity ([3]; 0.2 mg/kg): 35 min
CC(=O)Oc1cc(C(C)C)c(OCCN(C)CC2COc3ccccc3O2)cc1C (centres unmarked) [COR 28 13, hydrochloride of N-[(4-acetoxy-2-isopropyl-5-methyl)phenoxyethyl]-N-methyl-[2-(1,4-benzodioxane)]methylamine]	600	252	46.1 ± 6.01	61.1 ± 6.4			mortality ([1]; 1000 mg/kg): 0%; mortality ([1]; 2000 mg/kg): 20%
COc1cc(C(C)C)c(OCCN(C)CCOc2c(OC)cccc2OC)cc1C [drawing 28]							IC50 [6, 8]: 70 µM; IC50 [6, 9]: 74 µM; IC50 [6, 10]: 16 µM; IC50 [6, 11]: 40 µM; IC50 [6, 12]: > 100 µM; IC50 [6, 13]: > 100 µM; IC50 [6, 14]: 100 µM
COc1cccc(OC)c1OCCNCCOc1cc(C)c(O)cc1C(C)C [COR 28 25, hydrochloride of 4-[N-(2,6-dimethoxyphenoxyethyl)aminoethoxy]-5-isopropyl-2-methylphenol]			94.8 ± 2.22			120	inhibition in vivo at 0.2 mg/kg ([3]; 0.2 mg/kg): 70.2 ± 4.89%; time for the residual activity to become 50% of the maximum activity ([3]; 0.2 mg/kg): 20 min
